Data as given in patent US9981005B2, “Methods for increasing DISC1 in a subject with schizophrenia or bipolar disorder by an antagonist inhibiting DISC1 binding to FBXW7” (The University Court of the University of Glasgow, priority 2013, dated 2018).
“Also recorded” adds a separate entry of the source. Where a SMILES comes first, the peptide text is derived from it. Where no end group is shown, it is not given here. [ ]: non-standard residue; d: D form. The star is where a group is joined. pT = C[C@@H](OP(=O)(O)O)[C@H](N)C(=O)O; NMeE = CN[C@@H](CCC(=O)O)C(=O)O; pS = N[C@@H](COP(=O)(O)O)C(=O)O; NMeD = CN[C@@H](CC(=O)O)C(=O)O; Cbz = O=C(OCc1ccccc1)*

Assays:
[1] = system: DISC1 levels in HEK293 cells; assay: MG132 treatment of HEK293 cells, Western blot for DISC1; format: cell-based, human; conditions: MG132 at various concentrations for 3 hours, FIG. 1
Description: The proteasome inhibitor MG132 (N-carbobenzoxyl-Leu-Leu-Leucinal) (Sigma) was dissolved in DMSO to make a stock of 10 mM and stored at −20° C. HEK293 cells were treated with MG132 at various concentrations for 3 hours. The cells were then lysed in 3T3 lysis buffer (20 mM Hepes (pH 7.4), 50 mM NaCl, 50 mM NaF, 10% (v/v) glycerol, 1% (w/v) Triton X-100, 10 mM EGTA, 30 mM sodium pyrophosphate supplemented with protease and phosphatase inhibitor cocktail (Roche)). Proteins were quantified and normalised for protein concentration followed by Western blot analysis for DISC1 and GAPDH.
(§1) Lysates were boiled in Laemmli buffer for 2 minutes prior to SDS-PAGE. Lysates were loaded on to a precast 4-12% bis-tris gel (˜10 μg/well). Gels were resolved at 150V (constant) for 90 mins. Proteins were transferred to nitrocellulose membrane at 30V for 1 hour. Membranes were blocked in 5% Milk in 1×TBS-tween20 for 1 hour at room temperature. Primary antibodies were diluted in 1% milk in 1×TBS-tween20 and incubated overnight at 4° C. […] Protein bands were visulised using the Licor Odyssey scanner and analysed using Odyssey software (version 1.2). DISC-1 protein levels were analysed by densitometry and normalised against those of the loading control (GAPDH).

Skp1-FBXW7 = molecular target: T1, Skp1-FBXW7 (Homo sapiens, UniProt Q969H0); assay: Isothermal titration calorimetry (ITC); format: binding; conditions: ITC at 25° C.
T1 construct: human FBXW7 (residues 263-707); His6 (N, cleaved yes); made in house; host or cells: Escherichia coli
Description: Affinity of DISC1 analogue peptides (or other binding inhibitors) for FBXW7 may be determined using ITC.
Protein samples are typically dialysed against a solution containing 20 mM HEPES-Na (pH 7.4), 200 mM NaCl, and 2 mM β-mercaptoethanol before combining. Typically, the concentrations of Skp1-FBXW7 and DISC1 peptides used in the assay are 50 μM and 1 mM, respectively.
Titration is performed at 25° C. with a NANO ITC System (TA Instruments, New Castle, Del.) and data analysed using the TA Nano Analyze software. Dissociation constants and their standard deviations are typically derived from two to three independent measurements.

FBXW7 = FBXW7 (Homo sapiens, UniProt Q969H0); assay: Peptides immobilised on membranes screened for the ability to bind FBXW7; format: binding
Source text: Peptides derived from DISC1 and containing the putative phospho-degron motif were immobilised on membranes and screened for the ability to bind FBXW7. […] (SEQ ID NO: 114).
The 7-mer peptide P-pT-P-P-G-pS-H (SEQ ID NO: 21) was used as the basis for further investigation. L- and D-forms of aspartic acid and glutamic acid (upper and lower case letters respectively) as well as N-methylated versions of each (designated “m”) were incorporated at positions 198 and 202.

[2] = system: FBXW7 substrates Notch-1, c-Myc, c-Jun and cyclinE; assay: Expression levels of other FBXW7 substrates after peptide treatment, Western blot; format: cell-based, human; conditions: FIG. 11, specificity for the FBXW7-DISC1 interaction
Description: Lysates were boiled in Laemmli buffer for 2 minutes prior to SDS-PAGE. Lysates were loaded on to a precast 4-12% bis-tris gel (˜10 μg/well). Gels were resolved at 150V (constant) for 90 mins. Proteins were transferred to nitrocellulose membrane at 30V for 1 hour. Membranes were blocked in 5% Milk in 1×TBS-tween20 for 1 hour at room temperature. Primary antibodies were diluted in 1% milk in 1×TBS-tween20 and incubated overnight at 4° C. Membranes were washed three times with 1×TBS-tween20 and the appropriate secondary antibody (diluted using 1% milk in 1×TBS-tween20) was added for 45 mins at room temperature. Membranes were washed a further three times with 1×TBS-tween20 and once in 1×TBS. Protein bands were visulised using the Licor Odyssey scanner and analysed using Odyssey software (version 1.2). DISC-1 protein levels were analysed by densitometry and normalised against those of the loading control (GAPDH).

[3] = system: DISC1 expression in HEK293 cells; assay: DISC1 expression in HEK293 cells treated with cell-permeable peptides, quantitative Western blotting; format: cell-based, human; conditions: for DISC1 up-regulation, time course: cell-permeable (N-terminal stearate) peptides at 100 μM, 0, 1, 2, 3 and 6 hours, FIG. 9
Description: Peptides modified at the N-terminal amino group with stearate moieties to render them cell permeable (Severn Biotech Ltd) were dissolved in sterile DMSO at a stock concentration of 100 mM.
HEK293 cells were seeded into 6 well plates and cultured until 70-80% confluent. Cell permeable peptides 139 and 142 were added at 100 μM. Cells were incubated at 37° C./5% C02. Cells were taken at 0, 1, 2, 3 and 6 hours post peptide addition. After treatment cells were washed briefly with ice cold PBS and lysed on ice using 3T3 lysis buffer (20 mM Hepes (pH 7.4), 50 mM NaCl, 50 mM NaF, 10% (v/v) glycerol, 1% (w/v) Triton X-100, 10 mM EGTA, 30 mM sodium pyrophosphate) containing protease and phosphatase inhibitors. Protein concentrations were assessed using Bradford assay. Cell lysates were separated by SDS-PAGE and levels of DISC1 expression determined by quantitative Western blotting using the Licor Odyssey imaging system. GAPDH was used as a control to confirm equal loading.
In a similar experiment, HEK293 were seeded into 6 well plates and cultured until 70-80% confluent. Cell-permeable peptides 139 and 142 were added over a concentration range: 10 μM, 30 μM, 50 μM, 100 μM in duplicate. Cells were incubated at 37° C./5% C02 for 3 hours. […] After treatment cells were washed briefly with ice cold PBS and lysed on ice as described above.
as §1

Chain of FBXW7 (Q969H0 whole entry): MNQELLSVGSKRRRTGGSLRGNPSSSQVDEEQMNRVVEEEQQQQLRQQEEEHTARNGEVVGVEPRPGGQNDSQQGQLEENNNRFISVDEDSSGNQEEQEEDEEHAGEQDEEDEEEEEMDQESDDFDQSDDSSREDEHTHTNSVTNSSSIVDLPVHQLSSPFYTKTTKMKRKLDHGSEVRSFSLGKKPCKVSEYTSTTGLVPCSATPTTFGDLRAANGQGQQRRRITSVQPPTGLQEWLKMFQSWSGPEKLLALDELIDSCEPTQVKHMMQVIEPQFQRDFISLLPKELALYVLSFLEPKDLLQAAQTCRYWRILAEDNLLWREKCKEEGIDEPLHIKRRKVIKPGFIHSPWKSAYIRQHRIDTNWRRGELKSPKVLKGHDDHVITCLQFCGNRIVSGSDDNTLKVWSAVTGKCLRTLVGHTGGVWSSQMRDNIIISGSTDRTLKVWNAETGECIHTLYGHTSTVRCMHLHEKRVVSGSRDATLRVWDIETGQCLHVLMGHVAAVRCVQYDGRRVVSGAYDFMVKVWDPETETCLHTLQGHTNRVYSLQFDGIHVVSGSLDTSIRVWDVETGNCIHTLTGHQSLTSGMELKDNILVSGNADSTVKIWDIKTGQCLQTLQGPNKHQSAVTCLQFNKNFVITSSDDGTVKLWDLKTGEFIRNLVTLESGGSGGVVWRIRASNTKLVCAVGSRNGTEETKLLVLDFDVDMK
T1 sequence (Q969H0 263-707): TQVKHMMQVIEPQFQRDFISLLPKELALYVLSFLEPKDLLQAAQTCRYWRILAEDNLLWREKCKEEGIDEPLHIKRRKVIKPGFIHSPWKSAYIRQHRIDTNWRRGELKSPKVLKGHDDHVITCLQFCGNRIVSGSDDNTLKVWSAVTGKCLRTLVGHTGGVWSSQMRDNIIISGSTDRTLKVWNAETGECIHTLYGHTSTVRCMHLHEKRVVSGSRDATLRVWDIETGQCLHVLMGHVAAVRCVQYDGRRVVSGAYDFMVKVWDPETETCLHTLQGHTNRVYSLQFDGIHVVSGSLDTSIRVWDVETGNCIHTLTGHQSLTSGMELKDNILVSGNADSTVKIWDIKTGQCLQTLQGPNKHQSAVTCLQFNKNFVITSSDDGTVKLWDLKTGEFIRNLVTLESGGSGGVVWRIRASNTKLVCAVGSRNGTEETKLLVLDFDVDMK

In the case of CC(C)C[C@@H](C=O)NC(=O)[C@H](CC(C)C)NC(=O)[C@H](CC(C)C)NC(=O)OCc1ccccc1 [MG132, N-carbobenzoxyl-Leu-Leu-Leucinal] (Cbz-Leu-Leu-Leu-aldehyde), the DISC1 levels [1] is reported as “up-regulates DISC1 levels”.
For CC(C)[C@H](N)C(=O)N1CCC[C@H]1C(=O)N1CCC[C@H]1C(=O)N[C@H](C(=O)N1CCC[C@H]1C(=O)N1CCC[C@H]1C(=O)NCC(=O)N[C@@H](COP(=O)(O)O)C(=O)N[C@@H](Cc1c[nH]cn1)C(=O)O)[C@@H](C)OP(=O)(O)O [VPPpTPPGpSH] (H-VPP[pT]PPG[pS]H-OH; N-terminus and C-terminus assumed), the Kd (Skp1-FBXW7) was about 1 µM.
With “G-mD-P-P-G-mE-H (G[NMeD]PPG[NMeE]H) [Peptide 142]” the “binding to FBXW7” value (FBXW7) was “retain or have improved binding to FBXW7”, the “effect on expression levels of the other FBXW7 substrates Notch-1, c-Myc, c-Jun and cyclinE” value [2] was “do not upregulate other FBXW7 substrates; also recorded: no effect” and the “DISC1 up-regulation, time course” value [3] was “Up-Regulate DISC1 Expression”.
With “G-mE-P-P-G-mE-H (G[NMeE]PPG[NMeE]H) [Peptide 139]” the “binding to FBXW7” value (FBXW7) was “retain or have improved binding to FBXW7”, the “effect on expression levels of the other FBXW7 substrates Notch-1, c-Myc, c-Jun and cyclinE” value [2] was “do not upregulate other FBXW7 substrates; also recorded: no effect” and the “DISC1 up-regulation, time course” value [3] was “Up-Regulate DISC1 Expression”. The “DISC1 up-regulation, dose dependence” value ([3]; cell-permeable peptides at 10 μM, 30 μM, 50 μM, 100 μM, 3 hours, FIG. 10) was “dose-dependent”.
For “l-d-P-P-G-mE-H ([dL][dD]PPG[NMeE]H) [Peptide A99]”, the “binding to FBXW7” value (FBXW7) was “retain or have improved binding to FBXW7”.
In the case of “a-d-P-p-G-mE-H ([dA][dD]P[dP]G[NMeE]H) [Peptide A161]”, the “binding to FBXW7” value (FBXW7) is reported as “retain or have improved binding to FBXW7”.
With “a-mD-P-P-G-mE-H ([dA][NMeD]PPG[NMeE]H) [Peptide A51]” the “binding to FBXW7” value (FBXW7) was “retain or have improved binding to FBXW7”.
With “G-d-P-P-G-mE-H (G[dD]PPG[NMeE]H) [Peptide 173]” the “binding to FBXW7” value (FBXW7) was “retain or have improved binding to FBXW7”.
With “a-d-p-p-G-mE-H ([dA][dD][dP][dP]G[NMeE]H) [Peptide A163]” the “binding to FBXW7” value (FBXW7) was “retain or have improved binding to FBXW7”.
